# From ChEMBL document CHEMBL6177931, “Exploring diverse frontiers: Advancements of bioactive 4-aminoquinoline-based molecular hybrids in targeted therapeutics and beyond” (Eur J Med Chem, 2024)
# How the values were obtained:
# [1] = Growth inhibition of human 184B5 cells incubated for 48 hrs by SRB assay; assay type: toxicity, cell-based
# [2] = Growth inhibition of human MCF-10A cells incubated for 48 hrs by SRB assay; assay type: toxicity, cell-based
# MDA-MB-231 = test: Growth inhibition of human MDA-MB-231 cells incubated for 48 hrs by SRB assay; assay type: functional
# MDA-MB-468 = test: Growth inhibition of human MDA-MB-468 cells incubated for 48 hrs by SRB assay; assay type: functional
# MCF7 [3] = test: Growth inhibition of human MCF7 cells incubated for 48 hrs by SRB assay; assay type: functional
# [4] = Inhibition of ConA-induced IL-1beta secretion in female BALB/c mouse splenocyte incubated for 48 hrs by ELISA; assay type: functional, cell-based
# [5] = Inhibition of ConA-induced IL-6 secretion in female BALB/c mouse splenocyte incubated for 48 hrs by ELISA; assay type: functional, cell-based
# [6] = Inhibition of ConA-induced TNF-alpha secretion in female BALB/c mouse splenocyte incubated for 48 hrs by ELISA; assay type: functional, cell-based
# SARS-CoV = test: Antiviral activity against SARS-CoV 2019-nCoV infected in african green monkey Vero E6 cells; assay type: functional; conditions: Severe acute respiratory syndrome-related coronavirus, Vero C1008
# Escherichia coli = test: Antibacterial activity against Escherichia coli NCIM-2065 incubated for 16 to 24 hrs by broth microdilution method; assay type: functional; conditions: time 16-24 hrs
# Pseudomonas aeruginosa = test: Antibacterial activity against Pseudomonas aeruginosa NCIM-2036 incubated for 16 to 24 hrs by broth microdilution method; assay type: functional; conditions: time 16-24 hrs
# Proteus vulgaris = test: Antibacterial activity against Proteus vulgaris […] NCIM-2027 incubated for 16 to 24 hrs by broth microdilution method; assay type: functional; conditions: time 16-24 hrs
# Bacillus subtilis = test: Antibacterial activity against Bacillus subtilis NCIM-2063 incubated for 16 to 24 hrs by broth microdilution method; assay type: functional; conditions: time 16-24 hrs
# Bacillus cereus = test: Antibacterial activity against Bacillus cereus NCIM-2156 incubated for 16 to 24 hrs by broth microdilution method; assay type: functional; conditions: time 16-24 hrs
# Staphylococcus aureus = test: Antibacterial activity against Staphylococcus aureus NCIM-2079 incubated for 16 to 24 hrs by broth microdilution method; assay type: functional; conditions: time 16-24 hrs
# Plasmodium falciparum = test: Antiplasmodial activity against chloroquine sensitive Plasmodium falciparum NF54 incubated for 48 hrs by lactate dehydrogenase assay; assay type: functional, organism-based; conditions: NF54, Erythrocyte
# [7] = target: Cholinesterases; ACHE & BCHE (Homo sapiens) (UniProt P06276+P22303); test: Selectivity ratio of IC50 for inhibition of human BchE to IC50 for inhibition of recombinant human AchE; assay type: protein assay
# MCF7 [8] = test: Cytotoxicity against human MCF7 cells; assay type: functional, cell-based
# DU-145 = test: Cytotoxicity against human DU-145 cells; assay type: functional, cell-based
# MCF7 [9] = test: Antiproliferative activity against human MCF7 cells assessed as reduction in cell viability incubated for 24 hrs by MTT assay; assay type: functional, cell-based; conditions: MCF7, 24 h
# [10] = Antiproliferative activity against human AG01522 cells assessed as reduction in cell viability incubated for 24 hrs by MTT assay; assay type: functional, cell-based; conditions: AG01522, 24 h
# HT-29 = test: Antiproliferative activity against human HT-29 cells assessed as reduction in cell viability incubated for 24 hrs by MTT assay; assay type: functional, cell-based; conditions: HT-29, 24 h
# A549 = test: Antiproliferative activity against human A549 cells assessed as reduction in cell viability incubated for 24 hrs by MTT assay; assay type: functional, cell-based; conditions: A549, 24 h
# Acetylcholinesterase [11] = target: Acetylcholinesterase (Homo sapiens, UniProt P22303); test: Inhibition of AChE (unknown origin)
# NCI-H460 = test: Antiproliferative activity against human NCI-H460 cells incubated for 48 hrs by MTT assay; assay type: functional, cell-based; conditions: NCI-H460, 48 h
# T-24 = test: Antiproliferative activity against human T24 cells incubated for 48 hrs by MTT assay; assay type: functional, cell-based; conditions: T-24, 48 h
# L02 = test: Antiproliferative activity against human HL7702 cells incubated for 48 hrs by MTT assay; assay type: functional, cell-based; conditions: L02, 48 h
# HepG2 = test: Anticancer activity against human HepG2 cells incubated for 48 hrs by MTT assay; assay type: functional, cell-based; conditions: HepG2, 48 h
# MGC-803 [12] = test: Antitumor activity against human MGC-803 cells xenografted in male BALB/c nude mouse assessed as suppression of tumor growth at 12 mg/kg, ip administered per 2 days relative to control; assay type: functional
# MGC-803 [13] = test: Antiproliferative activity against human MGC-803 cells incubated for 48 hrs by MTT assay; assay type: functional, cell-based; conditions: MGC-803, 48 h
# Alternaria alternata = test: Antifungal activity against Alternaria alternata incubated for 72 hrs by mycelium growth rate method; assay type: functional, organism-based
# Pyricularia grisea = test: Antifungal activity against Pyricularia grisea incubated for 72 hrs by mycelium growth rate method; assay type: functional, organism-based
# Curvularia lunata = test: Antifungal activity against Curvularia lunata incubated for 72 hrs by mycelium growth rate method; assay type: functional, organism-based
# HeLa = test: Anticancer activity against human HeLa cells; assay type: functional, cell-based
# MCF7 [14] = test: Anticancer activity against human MCF7 cells; assay type: functional, cell-based
# Cholinesterase = Cholinesterase (Equus caballus, UniProt P81908); test: Inhibition of equine serum BChE using […] as substrate measured within 2 mins
# Beta-secretase 1 = Beta-secretase 1 (Homo sapiens, UniProt P56817); test: Inhibition of BACE1 (unknown origin) by FRET assay
# Acetylcholinesterase [15] = target: Acetylcholinesterase (Electrophorus electricus, UniProt O42275); test: Inhibition of electric eel AChE using […] as substrate measured within 2 mins
# Sequence of Acetylcholinesterase (Electrophorus electricus, UniProt O42275) (O42275 whole entry): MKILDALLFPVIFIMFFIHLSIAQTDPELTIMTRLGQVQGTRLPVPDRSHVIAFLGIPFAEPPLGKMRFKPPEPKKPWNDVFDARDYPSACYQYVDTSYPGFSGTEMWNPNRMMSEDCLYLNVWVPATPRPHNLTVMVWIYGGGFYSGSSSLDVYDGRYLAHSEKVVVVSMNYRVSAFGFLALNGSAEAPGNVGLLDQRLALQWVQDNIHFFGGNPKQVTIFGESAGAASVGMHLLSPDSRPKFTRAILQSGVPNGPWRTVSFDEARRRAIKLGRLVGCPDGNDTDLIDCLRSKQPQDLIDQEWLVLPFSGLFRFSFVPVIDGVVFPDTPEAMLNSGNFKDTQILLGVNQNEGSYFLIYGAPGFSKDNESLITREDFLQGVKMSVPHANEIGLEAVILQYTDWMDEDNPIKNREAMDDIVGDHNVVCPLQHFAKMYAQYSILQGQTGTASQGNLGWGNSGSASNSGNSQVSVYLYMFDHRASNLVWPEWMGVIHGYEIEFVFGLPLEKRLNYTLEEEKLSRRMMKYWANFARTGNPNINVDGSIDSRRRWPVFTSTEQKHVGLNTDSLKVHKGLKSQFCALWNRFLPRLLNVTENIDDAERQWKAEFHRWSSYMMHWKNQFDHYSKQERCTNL
# Sequence of Acetylcholinesterase (Homo sapiens, UniProt P22303) (P22303 whole entry): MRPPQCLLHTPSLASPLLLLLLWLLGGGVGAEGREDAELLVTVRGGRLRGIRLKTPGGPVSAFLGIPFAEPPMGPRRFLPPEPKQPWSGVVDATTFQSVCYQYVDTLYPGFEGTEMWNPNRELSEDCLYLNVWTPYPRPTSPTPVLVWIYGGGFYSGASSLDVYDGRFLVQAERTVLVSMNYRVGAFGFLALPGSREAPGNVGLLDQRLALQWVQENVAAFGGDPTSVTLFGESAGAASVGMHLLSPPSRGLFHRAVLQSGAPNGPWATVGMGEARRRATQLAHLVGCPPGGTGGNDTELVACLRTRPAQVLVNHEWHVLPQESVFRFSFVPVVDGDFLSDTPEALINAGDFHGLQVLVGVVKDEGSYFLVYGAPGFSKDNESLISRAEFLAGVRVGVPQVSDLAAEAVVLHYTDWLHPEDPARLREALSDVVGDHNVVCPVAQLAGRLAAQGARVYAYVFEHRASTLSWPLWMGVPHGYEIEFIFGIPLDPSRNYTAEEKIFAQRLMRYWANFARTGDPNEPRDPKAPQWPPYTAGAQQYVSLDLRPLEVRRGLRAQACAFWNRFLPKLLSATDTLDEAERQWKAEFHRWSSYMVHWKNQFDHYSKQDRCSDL
# Sequence of Cholinesterases; ACHE & BCHE (Homo sapiens) (P06276 whole entry, looked up): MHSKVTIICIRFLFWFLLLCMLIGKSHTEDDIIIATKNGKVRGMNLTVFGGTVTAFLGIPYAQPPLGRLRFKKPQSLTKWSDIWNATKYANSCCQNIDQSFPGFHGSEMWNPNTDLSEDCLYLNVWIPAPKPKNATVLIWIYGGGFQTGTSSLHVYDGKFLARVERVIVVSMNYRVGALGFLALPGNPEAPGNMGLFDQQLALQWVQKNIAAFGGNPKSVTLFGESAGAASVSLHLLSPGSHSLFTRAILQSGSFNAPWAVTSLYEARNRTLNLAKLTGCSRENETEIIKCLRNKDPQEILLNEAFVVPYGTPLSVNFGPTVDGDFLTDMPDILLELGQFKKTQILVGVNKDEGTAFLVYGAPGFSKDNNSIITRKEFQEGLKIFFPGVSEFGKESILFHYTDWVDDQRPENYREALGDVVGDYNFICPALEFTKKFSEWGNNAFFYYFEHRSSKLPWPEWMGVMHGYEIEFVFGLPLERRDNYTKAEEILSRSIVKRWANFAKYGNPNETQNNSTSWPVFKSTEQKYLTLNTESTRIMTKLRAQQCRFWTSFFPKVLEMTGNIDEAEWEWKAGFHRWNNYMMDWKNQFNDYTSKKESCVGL
# Sequence of Cholinesterases; ACHE & BCHE (Homo sapiens) (P22303 whole entry, looked up): as the sequence (P22303 whole entry) above
# Sequence of Beta-secretase 1 (P56817 whole entry): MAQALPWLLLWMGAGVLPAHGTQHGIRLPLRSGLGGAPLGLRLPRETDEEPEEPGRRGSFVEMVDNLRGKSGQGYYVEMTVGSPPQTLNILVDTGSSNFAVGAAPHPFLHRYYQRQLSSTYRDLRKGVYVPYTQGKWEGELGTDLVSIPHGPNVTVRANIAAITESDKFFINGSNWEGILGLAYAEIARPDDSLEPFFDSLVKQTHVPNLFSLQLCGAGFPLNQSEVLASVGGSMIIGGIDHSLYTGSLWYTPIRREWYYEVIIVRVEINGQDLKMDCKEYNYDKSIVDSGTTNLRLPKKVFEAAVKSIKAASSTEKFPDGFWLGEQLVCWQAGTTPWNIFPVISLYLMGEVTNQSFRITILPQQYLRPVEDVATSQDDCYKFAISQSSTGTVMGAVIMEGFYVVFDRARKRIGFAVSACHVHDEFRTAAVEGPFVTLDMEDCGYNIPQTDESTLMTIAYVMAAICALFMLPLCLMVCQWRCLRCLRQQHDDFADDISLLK
# Sequence of Cholinesterase (P81908 whole entry): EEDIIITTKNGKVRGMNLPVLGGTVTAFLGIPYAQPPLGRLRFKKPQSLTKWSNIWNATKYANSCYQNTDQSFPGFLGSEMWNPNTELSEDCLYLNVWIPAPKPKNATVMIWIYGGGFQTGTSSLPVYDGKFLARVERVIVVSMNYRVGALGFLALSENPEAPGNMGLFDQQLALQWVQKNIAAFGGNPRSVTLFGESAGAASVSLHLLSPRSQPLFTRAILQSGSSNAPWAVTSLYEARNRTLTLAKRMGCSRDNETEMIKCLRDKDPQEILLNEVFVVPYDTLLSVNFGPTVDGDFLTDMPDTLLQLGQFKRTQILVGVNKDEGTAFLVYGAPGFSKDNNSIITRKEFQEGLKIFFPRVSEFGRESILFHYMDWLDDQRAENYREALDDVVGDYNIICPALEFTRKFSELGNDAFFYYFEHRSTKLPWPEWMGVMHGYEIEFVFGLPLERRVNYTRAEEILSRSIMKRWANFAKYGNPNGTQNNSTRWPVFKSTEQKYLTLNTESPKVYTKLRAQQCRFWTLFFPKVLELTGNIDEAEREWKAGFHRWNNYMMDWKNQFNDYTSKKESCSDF
smiles,measurement,setting,value
O=[N+]([O-])c1ccc(S(=O)(=O)N2CCN(c3ccnc4cc(Cl)ccc34)CC2)c([N+](=O)[O-])c1,GI50 at 48 h,[1],9 µM
same,GI50 at 48 h,[2],12.3 µM
same,GI50,MDA-MB-231,3.4 µM
same,GI50,MDA-MB-468,0.7 µM
same,GI50,MCF7 [3],2.3 µM
CCN(CC)CCCC(C)Nc1ccnc2cc(Cl)ccc12 (stereo not drawn) [CHLOROQUINE],IC50,[4],2.72 µM
same,IC50,[5],14.6 µM
same,IC50,[6],35 µM
same,EC90,SARS-CoV,6.9 µM
O=[N+]([O-])c1ccc(Nc2nc(NC(=S)NNc3ccnc4cc(Cl)ccc34)nc(Nc3ccc([N+](=O)[O-])cc3)n2)cc1,MIC,Escherichia coli,12.5 µM
same,MIC,Pseudomonas aeruginosa,3.12 µM
same,MIC,Proteus vulgaris,3.12 µM
same,MIC,Bacillus subtilis,25 µM
same,MIC,Bacillus cereus,12.5 µM
same,MIC,Staphylococcus aureus,3.12 µM
O=C(/C=C/c1ccccc1Br)c1ccc(S(=O)(=O)NCCCNc2ccnc3cc(Cl)ccc23)cc1,IC50,Plasmodium falciparum,0.1 µM
Clc1ccc2c(Nc3cccc4c(NCCC56CC7CC(CC(C7)C5)C6)cccc34)ccnc2c1,Ratio IC50,[7],5.8
CC1(C)CC[C@]2(C(=O)O)CC[C@]3(C)C(=CC[C@@H]4[C@@]5(C)CC[C@H](O)C(C)(C)[C@@H]5CC[C@]43C)[C@@H]2C1 [OLEANOLIC_ACID],IC50,MCF7 [8],> 200 µM
same,IC50,DU-145,> 200 µM
O=c1cc(CCl)n(CCCNc2ccnc3cc(Cl)ccc23)cc1OCc1ccccc1,IC50,MCF7 [9],1.26 µM
same,IC50,[10],2.87 µM
same,IC50,HT-29,1.41 µM
same,IC50,A549,0.81 µM
O=P(NCCCCCCCCCCCCNc1c2c(nc3ccccc13)CCCC2)(Oc1ccccc1)Oc1ccccc1,IC50,Acetylcholinesterase [11],24300 µM
CN(C)CCCNc1c(-c2nc3ccccc3s2)cnc2ccccc12,IC50,NCI-H460,3.22 µM
same,IC50,T-24,3.17 µM
same,IC50,L02,10.9 µM
same,IC50,HepG2,4.88 µM
same,Activity,MGC-803 [12],42.4%
same,IC50,MGC-803 [13],2.2 µM
Cl.Clc1ccc(Nc2cc(-c3ccccc3)nc3ccccc23)cc1,EC50,Alternaria alternata,15.6 µg/mL
same,EC50,Pyricularia grisea,14.4 µg/mL
same,EC50,Curvularia lunata,13.3 µg/mL
C[C@H]1[C@H](C)CC[C@]2(C(=O)OCCNc3ccnc4cc(Cl)ccc34)CC[C@]3(C)C(=CC[C@@H]4[C@@]5(C)CC[C@H](O)C(C)(C)[C@@H]5CC[C@]43C)[C@H]12,IC50,HeLa,105 µg/mL
same,IC50,MCF7 [14],48.2 µg/mL
Nc1c2c(nc3c1C(c1cccc([N+](=O)[O-])c1)C1=C(O3)C(=O)c3ccccc3C1=O)CCCC2 (stereo not drawn),IC50,Cholinesterase,6.03 µM
same,IC50,Beta-secretase 1,19.6 µM
same,IC50,Acetylcholinesterase [15],0.86 µM
